The results in this text go back to patent US10907212B2, “Inhibitors of cell adhesion” (Regents of the University of Minnesota, priority 2016, dated 2021).

Where no end group is shown, it is not given here.

One assay relates to nectin 4 protein on NIH:OVCAR-5 cells. The assay can be described thus: Effect of peptides on anti-Nectin-4 antibody binding to cells as determined by flow cytometry. Format: cell-based, human. The following applies: Run Five; 150 μg/mL peptide, 30 minutes; Control 5 = 17,768.90. Here is the method:
Confluent monolayers of cells were detached from 75 cm^2 tissue culture flasks using Accutase cell dissociation buffer (Innovative Cell Technologies, San Diego, Calif.), washed, and labeled with mouse IgG or mAbs against Nectin-4 or Nectin-1 (2.5 μg/10^6 cells) in Flow Buffer [phosphate buffered saline (PBS) containing 2.5% newborn calf serum and 0.02% sodium azide] for 30 min at 4° C.. Cells were washed and incubated with goat anti-mouse IgG F(ab′)2 (Jackson ImmunoResearch, West Grove, Pa.), then washed again and incubated with streptavidin-allophycocyanin conjugate (Jackson ImmunoResearch, West Grove, Pa.) for 30 min each. Cells were washed and fixed in Flow Buffer containing 1% formaldehyde and analyzed in the University of Minnesota Flow Cytometry Resource with a BD Accuri™ C6 flow cytometer (BD Biosciences, San Jose, Calif.) using the Accuri™ software.
Briefly, NIH:OVCAR-5 cells that natively express a moderate amount of nectin 4 protein were incubated for 30 minutes in 150 μg/mL of soluble peptide in DMSO. After incubation, the cells were washed, and then triple antibody stained using mouse anti-nectin 4 (or IgG control) primary antibody, biotinylated goat anti-mouse secondary antibody, and streptavidin APC tertiary antibody. Finally, utilizing the University of Minnesota flow core's Accuri C6 flow cytometer, the relative antibody binding affinity for control and peptide-treated samples was quantitated and compared. Data was collected for each of the 57 peptides generated.
For orientation: In flow cytometry, cells or beads pass a laser one at a time.
As for “TNPIGTRSGQVEVN-NH2 (listed as Homo sapiens) [Peptide 54]”, the “N4 MFI” value was 19,706.27.

Take “VNITEFPYTPSPPEHGRRA-NH2 (listed as Homo sapiens) [Peptide 55]”: the “N4 MFI” value is reported as 19,498.24.

For the substance “WTTLNGSLPKGVEA-NH2 (listed as Homo sapiens) [Peptide 51]”, the “N4 MFI” value is reported as 14,202.55.

“NYSLAGTYICEATN-NH2 (listed as Homo sapiens) [Peptide 53]”: the “N4 MFI” value is listed as 40,909.47.

Staying with this assay, now noted: Run Five; Control 5 = 2.142155332.
With “TNPIGTRSGQVEVN-NH2 (listed as Homo sapiens) [Peptide 54]”, the “N4 MFI/IgG MFI” value turned out to be 2.253.

Consider “VNITEFPYTPSPPEHGRRA-NH2 (listed as Homo sapiens) [Peptide 55]”, for which the “N4 MFI/IgG MFI” value came to 2.29.

Turning to “WTTLNGSLPKGVEA-NH2 (listed as Homo sapiens) [Peptide 51]”, the “N4 MFI/IgG MFI” value worked out at 1.539.

With “NYSLAGTYICEATN-NH2 (listed as Homo sapiens) [Peptide 53]”, the “N4 MFI/IgG MFI” value came to 1.37.

Still in this assay, the particulars now being: Run Five; IgG control primary antibody; Control 5 = 8,294.87.
In the case of “TNPIGTRSGQVEVN-NH2 (listed as Homo sapiens) [Peptide 54]”, the “IgG MFI” value was 8,747.26.

Consider “VNITEFPYTPSPPEHGRRA-NH2 (listed as Homo sapiens) [Peptide 55]”, for which the “IgG MFI” value was 8,512.75.

“WTTLNGSLPKGVEA-NH2 (listed as Homo sapiens) [Peptide 51]”: the “IgG MFI” value is listed as 9,230.44.

For “NYSLAGTYICEATN-NH2 (listed as Homo sapiens) [Peptide 53]”, the “IgG MFI” value is recorded as 29,864.47.

The assay is the same for the next values; noted with them: Run Five; antibody binding relative to Control 5 = 100.
In the case of “TNPIGTRSGQVEVN-NH2 (listed as Homo sapiens) [Peptide 54]”, the “nectin-4 antibody binding, percent of control” value came to 115.7.

Regarding “VNITEFPYTPSPPEHGRRA-NH2 (listed as Homo sapiens) [Peptide 55]”, the “nectin-4 antibody binding, percent of control” value was 116.

With “WTTLNGSLPKGVEA-NH2 (listed as Homo sapiens) [Peptide 51]”, the “nectin-4 antibody binding, percent of control” value worked out at 52.48.

On to “NYSLAGTYICEATN-NH2 (listed as Homo sapiens) [Peptide 53]”, for which the “nectin-4 antibody binding, percent of control” value is on record as 116.6.

The assay is the same for the next values; noted with them: Run Four; 150 μg/mL peptide, 30 minutes; Control 4 = 9,631.58.
In the case of “PEVTIEGFDGNW-NH2 (listed as Homo sapiens) [Peptide 48]”, the “N4 MFI” value was 10,595.37.

In the case of “ACIVNYHMDRFKES-NH2 (listed as Homo sapiens) [Peptide 46]”, the “N4 MFI” value is 10,569.90.

With “NGKPPSVVSWETRL-NH2 (listed as Homo sapiens) [Peptide 42]”, the “N4 MFI” value is recorded as 9,416.50.

For “CKADANPPATEYHWT-NH2 (listed as Homo sapiens) [Peptide 50]”, the “N4 MFI” value is 11,341.38.

The assay is the same for the next values; noted with them: Run Four; Control 4 = 9.387504873.
Take “PEVTIEGFDGNW-NH2 (listed as Homo sapiens) [Peptide 48]”: the “N4 MFI/IgG MFI” value was determined as 9.911.

As to “ACIVNYHMDRFKES-NH2 (listed as Homo sapiens) [Peptide 46]”, the “N4 MFI/IgG MFI” value is reported as 6.623.

Turning to “NGKPPSVVSWETRL-NH2 (listed as Homo sapiens) [Peptide 42]”, the “N4 MFI/IgG MFI” value is on record as 7.497.

For “CKADANPPATEYHWT-NH2 (listed as Homo sapiens) [Peptide 50]”, the “N4 MFI/IgG MFI” value is 4.306.

Still in this assay, the particulars now being: Run Four; IgG control primary antibody; Control 4 = 1,026.
Consider “PEVTIEGFDGNW-NH2 (listed as Homo sapiens) [Peptide 48]”, for which the “IgG MFI” value is recorded as 1069.

Consider “ACIVNYHMDRFKES-NH2 (listed as Homo sapiens) [Peptide 46]”, for which the “IgG MFI” value came to 1596.

Consider “NGKPPSVVSWETRL-NH2 (listed as Homo sapiens) [Peptide 42]”, for which the “IgG MFI” value is reported as 1256.

In the case of “CKADANPPATEYHWT-NH2 (listed as Homo sapiens) [Peptide 50]”, the “IgG MFI” value was determined as 2634.

The assay is the same for the next values; noted with them: Run Four; antibody binding relative to Control 4 = 100.
On to “PEVTIEGFDGNW-NH2 (listed as Homo sapiens) [Peptide 48]”, for which the “nectin-4 antibody binding, percent of control” value is recorded as 110.7.

As to “ACIVNYHMDRFKES-NH2 (listed as Homo sapiens) [Peptide 46]”, the “nectin-4 antibody binding, percent of control” value amounted to 104.3.

Turning to “NGKPPSVVSWETRL-NH2 (listed as Homo sapiens) [Peptide 42]”, the “nectin-4 antibody binding, percent of control” value is recorded as 94.83.

For the substance “CKADANPPATEYHWT-NH2 (listed as Homo sapiens) [Peptide 50]”, the “nectin-4 antibody binding, percent of control” value was determined as 101.2.

Still in this assay, the particulars now being: Run One; 150 μg/mL peptide, 30 minutes; Control 1 = 15,015.
“VSPAYEGRVEQPPP-NH2 (listed as Homo sapiens) [Peptide 6]”: the “N4 MFI” value is recorded as 12,682.

On to “PAGELETSDVVTVV-NH2 (listed as Homo sapiens) [Peptide 1]”, for which the “N4 MFI” value was 2,085.

Regarding “GQGLTLAASCTAEG-NH2 (listed as Homo sapiens) [Peptide 12]”, the “N4 MFI” value is 11,052.

Still in this assay, the particulars now being: Run One; 150 μg/mL peptide, 30 minutes; IgG control primary antibody; Control 1 = 1,670.
“VSPAYEGRVEQPPP-NH2 (listed as Homo sapiens) [Peptide 6]”: the “IgG MFI” value is reported as 1,622.

Consider “PAGELETSDVVTVV-NH2 (listed as Homo sapiens) [Peptide 1]”, for which the “IgG MFI” value is 1,529.

In the case of “GQGLTLAASCTAEG-NH2 (listed as Homo sapiens) [Peptide 12]”, the “IgG MFI” value is 2,827.

Still in this assay, the particulars now being: Run One; Control 1 = 8.99.
On to “VSPAYEGRVEQPPP-NH2 (listed as Homo sapiens) [Peptide 6]”, for which the “N4 MFI/IgG MFI” value is given as 7.82.

With “PAGELETSDVVTVV-NH2 (listed as Homo sapiens) [Peptide 1]”, the “N4 MFI/IgG MFI” value was determined as 1.36.

Take “GQGLTLAASCTAEG-NH2 (listed as Homo sapiens) [Peptide 12]”: the “N4 MFI/IgG MFI” value is 3.91.

Staying with this assay, now noted: Run One; antibody binding relative to Control 1 = 100.00.
In the case of “VSPAYEGRVEQPPP-NH2 (listed as Homo sapiens) [Peptide 6]”, the “nectin-4 antibody binding, percent of control” value is 82.88.

For the substance “PAGELETSDVVTVV-NH2 (listed as Homo sapiens) [Peptide 1]”, the “nectin-4 antibody binding, percent of control” value came out at 4.17.

Turning to “GQGLTLAASCTAEG-NH2 (listed as Homo sapiens) [Peptide 12]”, the “nectin-4 antibody binding, percent of control” value worked out at 61.63.

Staying with this assay, now noted: flow cytometry; 150 μg/mL peptide.
With “WTTLNGSLPKGVEA-NH2 (listed as Homo sapiens) [Peptide 51]”, the “nectin-4 antibody binding compared to untreated control cells (in words)” value was “reduction in nectin-4 antibody binding”.

Turning to “PAGELETSDVVTVV-NH2 (listed as Homo sapiens) [Peptide 1]”, the “nectin-4 antibody binding compared to untreated control cells (in words)” value is recorded as “reduction in nectin-4 antibody binding”.

Still in this assay, the particulars now being: summary table; Nectin-4 antibody binding relative to control = 100.
“WTTLNGSLPKGVEA-NH2 (listed as Homo sapiens) [Peptide 51]” returned a Flow binding of 53%.

A further assay concerns ovarian cancer cell aggregation and spheroid formation. The assay can be described thus: Spheroid assay for peptides (visual scale +1 to +5). The following applies: 24 hrs; visual scale of +1 to +5; Control = 2. Format: cell-based, human. As to the method: Spheroids were formed from the NIH:OVCAR5 cell lines described above using the liquid overlay method. One milliliter of a single cell suspension was seeded at a concentration of 50,000 cells/ml in OptiMEM® media, into 24-well tissue culture plates coated with 0.5% Seakem agarose (in complete RPMI-1640). Plates were incubated at 37° C. in a humidified incubator with 5% CO2. At various time points up to 5 days, the plates were removed from the incubator and the spheroids were photographed with a Nikon CoolPix digital camera mounted on an Olympus CK2 inverted microscope with a 4× objective. The size of the spheroids was determined using the measure tool in Adobe Photoshop. The largest spheroids were quantified (20-90 spheroids/well), in a minimum of 8 wells, for a total of >300 spheroids per cell type.
The clinical relevance is that by blocking the formation of spheroids, the cells will be more sensitive to chemotherapy (which targets the single cells that proliferate more rapidly than spheroids).
The spheroid assay for peptides 1-30 were scored using a visual scale of +1 to +5. The controls were scored at +2 (24 hrs) and +4 (48 hrs). […] It may be harder to visually assess the size at 24 hours, since the spheroids are relatively small, but and perhaps some of the peptides are affecting cell division, and that is why the spheroids are smaller than the controls at 48 hours, but not 24 hrs (this can be easily assayed with an MTT assay).
Turning to “PEVTIEGFDGNW-NH2 (listed as Homo sapiens) [Peptide 48]”, the Spheroid-24 is 1.

In turn, “VSPAYEGRVEQPPP-NH2 (listed as Homo sapiens) [Peptide 6]” gave a Spheroid-24 of 1.

The same assay, now with this note: 48 hrs; visual scale of +1 to +5; Control = 4.
Substance “PEVTIEGFDGNW-NH2 (listed as Homo sapiens) [Peptide 48]” gave a Spheroid-48 of 2.

As to “VSPAYEGRVEQPPP-NH2 (listed as Homo sapiens) [Peptide 6]”, the Spheroid-48 was 2.
